Data taken from US20100036088A1, “Selective poly-N-substituted glycine antibiotics” (priority 2008, published 2010).
Numbered stars: 1 amine (or outer) side, 2 acyl side, 3 side chain; on linkers, the order of the positions; unused ones are H or OH. Square brackets hold non-standard residues; d marks the D form. Peptide text beside a SMILES is read from it. Gly(N-CH2CH2-imidazol-4-yl) = O=C(O)CNCCc1c[nH]cn1; X3 = C[C@@H](c1ccc2ccccc2c1)N(CC(=O)[*:2])[*:1]; N(1S-Me-propyl)Gly = CC[C@H](C)NCC(=O)O; X1 = CC(C)[C@H](C)N(CC(=O)[*:2])[*:1]; Nspe = C[C@H](NCC(=O)O)c1ccccc1; Nlys = NCCCCNCC(=O)O

Key:
human erythrocytes = experiment: Hemolysis assay; type: cell-based; details: for HD50 (50% hemolytic dose) / HD10 (10% hemolytic dose): red cells of human, 1 h
Description: Hemolysis assays. Erythrocytes were isolated from freshly drawn, heparanized human blood and resuspended to 20 vol % in PBS (pH 7.4). In a 96-well microtiter plate, 100 μL erythrocyte suspension was added to 100 μL peptoid solution in PBS (prepared by 1:2 serial dilutions), or 100 μL PBS in the case of negative controls. 100% hemolysis wells contained 100 μL blood cell suspension with 100 μL 0.2 vol % Triton X-100. The plate was incubated for 1 h at 37° C., then each well was diluted with 150 μL PBS. The plate was then centrifuged at 1200 g for 15 min, 100 μL of the supernatant from each well transferred to a fresh microtiter plate, and A350 measured.
Hemolysis assays. Erythrocytes were isolated from freshly drawn, heparanized human blood and resuspended in PBS (pH 7.4) to make a 20% volume suspension. Peptoid solutions were prepared by serial dilution (2:1) in a 96-well microtiter plate. For test wells, 100 μL of erythrocyte suspension was added to 100 μL of peptoid solution in PBS; PBS without peptoid was used as the negative control and 0.2 vol % Triton X-100 as the positive control that indicates 100% hemolysis. After 1 hour incubation at 37° C., each well was diluted with 150 μL PBS. Plates were then centrifuged at 1,200×g for 15 minutes to pellet the cells. 30 μL of the supernatant from each well were transferred to the corresponding well of a second 96-well plate that contains 70 μL PBS.

B. subtilis (ATCC 6633) = type: cell-based; details: ATCC 6633
Description: (§1) Whereas the preceding generation of molecules was designed to elucidate structure function relationships of specific molecular parameters (chirality, length, hydrophobicity, etc.), another generation compounds were designed explicitly to explore effects on selectivity. Antimicrobial activity of these compounds was tested against bacterial strains E. coli (ATTC 35218) and B. subtilis (ATTC 6633) in cation-adjusted MHB using the microdilution protocols previously described. The sequences, antimicrobial activities, hemolytic activities, and metabolic inhibitory concentrations against NIH 3T3 mouse fibroblast cells are summarized in Table 3 and the rationale of their design is described below.
(§2) The potencies of all compounds were determined against representative Gram-negative (E. coli ATCC 35218) and Gram-positive (B. subtilis ATCC 6633) biosafety level 1 (BSL1) organisms. In addition to hemolytic activity, the conventional measure of toxicity to mammalian cells, the effect of each ampetoid on NIH 3T3 mouse fibroblast cells was determined using the MTS tetrazolium salt-based calorimetric assay. While hemolysis measures the degree to which erythrocytes are lysed, the MTS assay indirectly quantifies the extent to which cellular metabolic activity is inhibited.
(§3) Screening antibacterial assays. MICs were determined in 96-well microtiter plates in accordance with CLSI M7-A6 protocols. Peptoid solutions with 50 μL total volume were prepared using 2:1 serial dilutions. 50 μL of bacteria inoculum (1×10^6 CFU/mL) prepared in cation-adjusted Mueller-Hinton broth (CAMHB) was added to test wells. Control wells contained 100 μL MHB (no growth) or 50 μL inoculums with 50 μL MHB with no peptoid. […] Reported values were reproducible over three experiments, each containing two parallel trials.

E. coli (ATCC 35218) = type: cell-based; details: ATCC 35218
Description: as §1, §2, §3

[1] = MTS assay, metabolic inhibition; type: cell-based, mouse
Description: as §2
MTS assays. NIH/3T3 cells (ATCC Corporation) cultured at 37° C. and 5% CO2 in complete Dulbecco's modified eagle's media (CDMEM) supplemented with 1% sodium pyruvate, 1% penicillin-streptomycin, 1.5 g/L NaHCO3, and 10% fetal bovine serum. Cells were seeded at a density of 5,000 cells per well for NIH/3T3 cells in 96-well plates (100 μl total volume). A peptoid solution plate (100 μL total volume per well) was prepared by serial dilution of aqueous peptoid stock solution in Hank's balanced salt solution (HBSS) media. The day-old cell monolayers were washed with HBSS and media was replaced with 100 μL HBSS. The contents of the peptoid solution plate were transferred onto corresponding wells of the cell monolayer plate, and 40 μL MTS reagent (Promega, Inc.) was added to each well. After incubating for 3 hours at 37° C., absorbance at 490 nm was determined. […] The average of six replicates is reported.

Row | Structure (SMILES) | HD50 (50% hemolytic dose) (human erythrocytes) | HD10 (10% hemolytic dose) (human erythrocytes) | HD10 (human erythrocytes) | HD50 (human erythrocytes) | IC50 [1] [µM] | also measured
1 | C[C@@H](c1ccccc1)N(CC(N)=O)C(=O)CN(C(=O)CN(CCC(=O)O)C(=O)CN(C(=O)CN(C(=O)CN(CCC(=O)O)C(=O)CN(C(=O)CN(C(=O)CN(CCC(=O)O)C(=O)CN(C(=O)CN(C(=O)CNCCC(=O)O)[C@@H](C)c1ccccc1)[C@@H](C)c1ccccc1)[C@@H](C)c1ccccc1)[C@@H](C)c1ccccc1)[C@@H](C)c1ccccc1)[C@@H](C)c1ccccc1)[C@@H](C)c1ccccc1 [1-Nglu1,4,7,10] | >110/>110 μM | – | – | – | – | –
2 | C[C@@H](c1ccccc1)N(CC(N)=O)C(=O)CN(C(=O)CN(CCC(=O)O)C(=O)CN(C(=O)CN(C(=O)CN(CCCCN)C(=O)CN(C(=O)CN(C(=O)CN(CCC(=O)O)C(=O)CN(C(=O)CN(C(=O)CNCCCCN)[C@@H](C)c1ccccc1)[C@@H](C)c1ccccc1)[C@@H](C)c1ccccc1)[C@@H](C)c1ccccc1)[C@@H](C)c1ccccc1)[C@@H](C)c1ccccc1)[C@@H](C)c1ccccc1 [1-Nglu4,10] | 40 µM | 19 µM | – | – | – | –
3 | C[C@@H](c1ccccc1)N(CC(=O)N(CCc1c[nH]cn1)CC(=O)N(CCCCN)CC(=O)N(CC(=O)N(CCc1c[nH]cn1)CC(=O)N(CCCCN)CC(=O)N(CC(=O)N(CCc1c[nH]cn1)CC(=O)N(CCCCN)CC(=O)N(CC(=O)N(CCc1c[nH]cn1)CC(N)=O)[C@@H](C)c1ccccc1)[C@@H](C)c1ccccc1)[C@@H](C)c1ccccc1)C(=O)CNCCCCN [1-Nhis3,6,9,12] (H-[Nlys][Nspe][Gly(N-CH2CH2-imidazol-4-yl)][Nlys][Nspe][Gly(N-CH2CH2-imidazol-4-yl)][Nlys][Nspe][Gly(N-CH2CH2-imidazol-4-yl)][Nlys][Nspe][Gly(N-CH2CH2-imidazol-4-yl)]-NH2) | – | – | >200/>200 μM | >200/>200 μM | – | B. subtilis MIC (B. subtilis (ATCC 6633)): 100 µM; E. coli MIC (E. coli (ATCC 35218)): >100 µM
4 | CC(C)[C@H](C)N(CC(=O)N(CCCCN)CC(=O)N(CC(=O)N(CC(=O)N(CCCCN)CC(=O)N(CC(=O)N(CC(=O)N(CCCCN)CC(=O)N(CC(=O)N(CC(N)=O)[C@@H](C)c1ccccc1)[C@@H](C)c1ccccc1)[C@@H](C)C(C)C)[C@@H](C)C(C)C)[C@@H](C)c1ccccc1)[C@@H](C)c1ccccc1)C(=O)CN(C(=O)CNCCCCN)[C@@H](C)C(C)C [1-Nsdp2,3,8,9, H-(Nlys-Nsdp-Nsdp-Nlys-Nspe-Nspe)2-NH2] (H-[Nlys][X1][X1][Nlys][Nspe][Nspe][Nlys][X1][X1][Nlys][Nspe][Nspe]-NH2) | – | – | 77 µM | > 200 µM | 19 | –
5 | C[C@@H](c1ccccc1)N(CC(N)=O)C(=O)CN(Cc1ccccc1)C(=O)CN(CCCCN)C(=O)CN(Cc1ccccc1)C(=O)CN(Cc1ccccc1)C(=O)CN(CCCCN)C(=O)CN(Cc1ccccc1)C(=O)CN(Cc1ccccc1)C(=O)CN(CCCCN)C(=O)CN(Cc1ccccc1)C(=O)CN(Cc1ccccc1)C(=O)CNCCCCN [1ach-Nspe12, H-(Nlys-Npm-Npm)3-(Nlys-Npm-Nspe)-NH2] | – | – | 164 µM | > 200 µM | 15 | B. subtilis MIC (B. subtilis (ATCC 6633)): 1.6 µM
6 | C[C@@H](c1ccccc1)N(CC(N)=O)C(=O)CN(C(=O)CN(C(=O)CN(C(=O)CN(C(=O)CN(C(=O)CN(C(=O)CN(C(=O)CN(CCCCN)C(=O)CN(CCCCN)C(=O)CN(CCCCN)C(=O)CNCCCCN)[C@@H](C)c1ccccc1)[C@@H](C)c1ccccc1)[C@@H](C)c1ccccc1)[C@@H](C)c1ccccc1)[C@@H](C)c1ccccc1)[C@@H](C)c1ccccc1)[C@@H](C)c1ccccc1 [1block, H-(Nlys)4-(Nspe)8-NH2] | 73 µM | 18 µM | – | – | – | –
7 | C[C@H](NCC(=O)N(CC(=O)N(CCCCN)CC(=O)N(CC(=O)N(CCCCN)CC(=O)N(CC(=O)N(CCCCN)CC(=O)N(CC(=O)N(CC(=O)N(CC(=O)N(CC(=O)N(CCCCN)CC(N)=O)[C@@H](C)c1ccccc1)[C@@H](C)c1ccccc1)[C@@H](C)c1ccccc1)[C@@H](C)c1ccccc1)[C@@H](C)c1ccccc1)[C@@H](C)c1ccccc1)[C@@H](C)c1ccccc1)c1ccccc1 [1scr, H-(Nspe)2-(Nlys-Nspe)3-(Nspe)3-Nlys-NH2] (H-[Nspe][Nspe][Nlys][Nspe][Nlys][Nspe][Nlys][Nspe][Nspe][Nspe][Nspe][Nlys]-NH2) | – | – | 64 µM | > 200 µM | 8.5 | –
8 | CC[C@H](C)N(CC(=O)N(CC(N)=O)[C@@H](C)c1ccc2ccccc2c1)C(=O)CN(CCCCN)C(=O)CN(C(=O)CN(C(=O)CN(CCCCN)C(=O)CN(C(=O)CN(C(=O)CN(CCCCN)C(=O)CN(C(=O)CN(C(=O)CNCCCCN)[C@@H](C)CC)[C@@H](C)c1ccccc1)[C@@H](C)CC)[C@@H](C)c1ccc2ccccc2c1)[C@@H](C)CC)[C@@H](C)c1ccccc1 [2-Nsna6,12] (H-[Nlys][N(1S-Me-propyl)Gly][Nspe][Nlys][N(1S-Me-propyl)Gly][X3][Nlys][N(1S-Me-propyl)Gly][Nspe][Nlys][N(1S-Me-propyl)Gly][X3]-NH2) | > 120 µM | 55 µM | – | – | – | –
9 | CC[C@H](C)N(CC(=O)N(CC(=O)N(CC(=O)N(CCCCN)CC(N)=O)[C@@H](C)c1ccccc1)[C@@H](C)CC)C(=O)CN(CCCCN)C(=O)CN(C(=O)CN(CCCCN)C(=O)CN(C(=O)CN(C(=O)CN(C(=O)CN(C(=O)CNCCCCN)[C@@H](C)CC)[C@@H](C)c1ccccc1)[C@@H](C)CC)[C@@H](C)c1ccccc1)[C@@H](C)c1ccccc1 [2scrambled, H-Nlys-Nssb-Nspe-Nssb-Nspe-Nlys-Nspe-Nlys-Nssb-Nssb-Nspe-Nlys-NH2] (H-[Nlys][N(1S-Me-propyl)Gly][Nspe][N(1S-Me-propyl)Gly][Nspe][Nlys][Nspe][Nlys][N(1S-Me-propyl)Gly][N(1S-Me-propyl)Gly][Nspe][Nlys]-NH2) | >120/>120 μM | >120/>120 μM | – | – | – | no hemolysis up to (human erythrocytes): > 120 µM
10 | C[C@@H](c1ccccc1)N(CC(N)=O)C(=O)CN(CCCCN)C(=O)CN(C(=O)CN(C(=O)CN(CCCCN)C(=O)CN(C(=O)CN(C(=O)CN(CCCCN)C(=O)CN(C(=O)CN(C(=O)CNCCCCN)[C@@H](C)c1ccccc1)[C@@H](C)c1ccccc1)[C@@H](C)c1ccccc1)[C@@H](C)c1ccccc1)[C@@H](C)c1ccccc1)[C@@H](C)c1ccccc1 [111mer, H-(Nlys-Nspe-Nspe)3-Nlys-Nspe-NH2] (H-[Nlys][Nspe][Nspe][Nlys][Nspe][Nspe][Nlys][Nspe][Nspe][Nlys][Nspe]-NH2) | – | – | 103 µM | > 200 µM | 11 | –
11 | CC[C@H](C)N(CC(=O)N(CC(N)=O)[C@@H](C)c1ccccc1)C(=O)CN(CCCCN)C(=O)CN(C(=O)CN(C(=O)CN(CCCCN)C(=O)CN(C(=O)CN(C(=O)CN(CCCCN)C(=O)CN(C(=O)CN(C(=O)CNCCCCN)[C@@H](C)CC)[C@@H](C)c1ccccc1)[C@@H](C)CC)[C@@H](C)c1ccccc1)[C@@H](C)CC)[C@@H](C)c1ccccc1 [compound 2, H-(Nlys-Nssb-Nspe)4-NH2] (H-[Nlys][N(1S-Me-propyl)Gly][Nspe][Nlys][N(1S-Me-propyl)Gly][Nspe][Nlys][N(1S-Me-propyl)Gly][Nspe][Nlys][N(1S-Me-propyl)Gly][Nspe]-NH2) | >120/>120 μM | >120/>120 μM | – | – | – | –
